Laboratory results: patent US4877727A, “Substrate for determining leucine aminopeptidase or gamma-glutamyltranspeptase activity” (Kyowa Medex Co., Ltd., priority 1984, dated 1989)
Converted amounts (≈) assume the structure as drawn.

Tests used:
[1] = target: T1, γ-glutamyltranspeptidase (γ-GTP) (Homo sapiens, UniProt P19440); assay: γ-GTP determination in serum (Example 3); assay type: biochemical; settings: found with the compound as substrate; standard serum 235 mU/ml; 37° C., 5 minutes; wavelength of Table 2
T1 construct: from tissue; host or cells: serum
T1 sequence (P19440 1-380 limits assumed): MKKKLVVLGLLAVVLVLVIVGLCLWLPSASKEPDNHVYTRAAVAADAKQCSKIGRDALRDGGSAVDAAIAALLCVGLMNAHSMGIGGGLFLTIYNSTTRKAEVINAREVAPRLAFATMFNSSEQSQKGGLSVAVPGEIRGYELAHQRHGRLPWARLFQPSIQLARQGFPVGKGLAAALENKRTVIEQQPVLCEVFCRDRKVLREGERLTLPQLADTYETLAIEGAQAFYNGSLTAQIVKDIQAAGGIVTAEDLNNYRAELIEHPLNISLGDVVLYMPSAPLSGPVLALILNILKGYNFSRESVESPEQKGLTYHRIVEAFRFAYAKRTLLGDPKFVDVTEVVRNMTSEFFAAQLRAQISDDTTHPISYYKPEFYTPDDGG
T1 sequence (P19440 381-569 limits assumed): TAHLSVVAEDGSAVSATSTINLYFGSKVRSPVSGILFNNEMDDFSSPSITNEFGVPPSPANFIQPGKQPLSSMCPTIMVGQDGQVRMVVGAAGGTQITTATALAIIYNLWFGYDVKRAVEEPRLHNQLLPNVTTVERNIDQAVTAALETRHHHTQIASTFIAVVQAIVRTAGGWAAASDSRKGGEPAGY
Description: In this example, 500 mg of compound Nos. 1, 3, 5, 7 and 9 each and 500 mg of glycylglycine were dissolved in 100 ml (pH=7.7) and 0.1M phosphate buffer. The resultant solutions were designated A-1, A-3, A-5, A-7 and A-9, respectively. 50 mg of 3-{N-(m-tolyl)-N-ethyl}amino-2-hydroxypropane sulfonic acid was dissolved in 100 ml of phosphate buffer solution to obtain solution B. 50 mg/ml sodium meta-periodate containing 1N-HCl solution was prepared as solution C.
6 ml of solution A-1, A-3, A-5, A-7 or A-9 was equally poured to 3 test tubes. The samples were incubated at 37° C. and to the solution was added […] of (a) serum sample (b) standard serum or (c) water. The mixtures were stirred and heated for 5 minutes. After 5 minutes had passed, 1 ml of solution B and 1 ml of solution C were added to each of the mixtures and the mixtures were incubated for 10 minutes after stirring. As the standard serum, a serum having 235 mU/ml of γ-GTP was used.
The γ-GTP activity of the serum sample can be calculated by the following equation. [formula]

Solubility of substrate = assay type: physicochemical; settings: read-out: S: Solubility
Stability of pigment = assay type: physicochemical
[2] = Maximum wavelength of formed pigment; assay type: physicochemical
Description: 50 μl of 1 mM each free compound was added to 3 ml of 0.1M phosphate buffer containing 0.5 mg/ml EMSE and 1 U/ml laccase and the mixture was incubated at 37° C. for 5 minutes. The absorption of the reaction solution at λmax was measured. As a control, 5-aminosalicylic acid was used and the reaction of the compound with 2,6-xylenol was carried out in the presence of metaperiodate under strong alkaline conditions.

| Compound | γ-GTP activity of the serum sample [1] | solubility (Solubility of substrate) | ST: Stability of pigment (Stability of pigment) | λmax: Maximum wavelength [2] |
| --- | --- | --- | --- | --- |
| CN(CCCS(=O)(=O)O)c1ccc(NC(=O)CC[C@H](N)C(=O)O)cc1 [compound 3] | 228 mU/ml | 80 mg/mL (≈ 214 mM) | > 96% | 750 nm |
| N[C@@H](CCC(=O)Nc1ccc(N(CCCS(=O)(=O)O)CCCS(=O)(=O)O)c(Cl)c1)C(=O)O [compound 9] | 242 mU/ml | > 200 mg/mL | > 98% | 685 nm |
